Laboratory results from patent US11447535B2, “GLP-1 analogues” (Sun Pharmaceutical Industries Limited, priority 2018, dated 2022).
Marks after values point to notes of the source that are not given here.

Assays:
[1] = test system: db/db mice (diabetic mouse model); experiment: Separate db/db diabetic mouse study, q2d*15 up to day 28, recovery period day 29 to day 45; type: in vivo
Procedure: The study was performed in similar manner as above on diabetic mouse model. The animals were divided into three treatment groups—a diabetic control group, a test group and a semaglutide treatment group. The representative compounds of the present disclosure, Compound 1, Compound 13 and Compound 16, were injected subcutaneously at 3.04 or 6.078 nM dose (every alternate day up to day 28 (q2d*15). The same dosage regimen was administered in semaglutide treatment group. Measurements of blood glucose levels and body weight were done daily. % HbA1c, Insulin was measured on Day 0, day 14 and day 29. Cumulative food intake and body weight change was calculated on day 14 and 29. % HbA1c, Insulin data was analyzed by two way ANOVA followed by Bonferroni's posttests using PRISM (Graph Pad version 5.03). Whereas Blood Glucose AUC, Body weight change and Cumulative food intake data was analyzed by one way ANOVA followed by Bonferroni's posttests using PRISM (Graph Pad version 5.03). From day 29 to day 45, animals were kept on recovery period during which no drug treatment was given. Blood Glucose and Body weight was measured during this period. On day 45, Body weight Changes, % HbA1c, Insulin was measured.

SD rats = experiment: Oral glucose tolerance test (OGTT) in rats; single injection; 1 mg/kg; type: in vivo; conditions: for Blood Glucose AUC (mg/dL*min) Mean: 1 mg/Kg
Procedure: (§1) Animals were divided into three groups—a normal control group, a test group and a third semaglutide group, with 4 animals in each group. The animals were fasted for 12 hours before initiation of OGTT. To the test group animals, the Compound 1 was injected subcutaneously at 1 mg/kg dose. To the semaglutide group, a dose of 1 mg/kg was injected subcutaneously. After 22 hrs, 166 hrs and 334 hrs of subcutaneous injection of test drug or semaglutide, blood glucose was measured with blood glucose meter (time 0 measurements). All the animals were then given 2 g/kg of glucose solution orally. Blood glucose was measured at 20, 40, 60, 90 and 120 minutes following glucose challenge. Body weight and food intake was recorded. Blood glucose data was analyzed using Two way ANOVA followed by Bonferroni posttests using PRISM (Graph Pad version 5.03). Data of Blood glucose AUC0-120 min, was analyzed using t test.
as §1, with “animals,” for “animals, the”, “1, Compound 13 and Compound 16 were” for “1 was”, “compound” for “drug”

[2] = test system: db/db type 2 diabetic mice; experiment: Reduction of HbA1c in db/db type 2 diabetic mice after chronic treatment (27 day study); type: in vivo; conditions: db/db mice
Procedure: This study was done in diabetic mouse model. The animals were divided into three treatment groups—a diabetic control group, a test group and a semaglutide treatment group. Compound 1 of the present disclosure was injected subcutaneously at 0.3 mg/kg dose once a day for 3 days (qd*3) followed by 0.1 mg/kg dose every alternate day for 7 doses (q2d*7) followed by 0.1 mg/kg dose once every four days for two dose cycles (q4d*2). The same dosage regimen was administered in semaglutide treatment group. Measurements of blood glucose levels and body weight were done daily. % HbA1c was measured on Day 0, day 7, day 14 and day 27 by column chromatography. Cumulative food intake was calculated on day 27. % HbA1C data was analyzed by two way ANOVA followed by Bonferroni's posttests using PRISM (Graph Pad version 5.03).

[3] = Food intake and body weight recorded in the rat OGTT study; type: in vivo, rats; conditions: for Body Weight Change (%) Mean / Food Consumption (g) Mean: 1 mg/Kg
Procedure: as §1
as §1, with “animals,” for “animals, the”, “1, Compound 13 and Compound 16 were” for “1 was”, “compound” for “drug”

[4] = recovery period, earlier dose 12.155 nM
[5] = recovery study, day 45, earlier dose 12.155 nM
[6] = rats, 1 mg/kg s.c. single injection, Day 2
[7] = rats, 1 mg/kg s.c. single injection, Day 4

Semaglutide [reference compound]
Blood Glucose AUC (Day 0-29) % Change Vs Control ([1]; 12.155 nM, q2d*15): −41.78%
Blood Glucose AUC (Day 0-29) (mg/dL*days) Mean ([1]; 12.155 nM, q2d*15): 9867.9*** mg/dL*days
Body Weight Change Day 29, % Change vs Day 0 Mean ([1]; 12.155 nM, q2d*15): 0.7%
Cumulative Food Intake (g) Day 0-29 Mean ([1]; 12.155 nM, q2d*15): 92.0 g
% HbA1C Mean ([1]; Day 0, 12.15 nM, q2d*15): 7.66%
Insulin (ng/mL) Mean ([1]; Day 0, 12.15 nM, q2d*15): 18.7 ng/mL
% HbA1C Mean ([1]; Day 14, 12.15 nM, q2d*15): 7.04%
Insulin (ng/mL) Mean ([1]; Day 14, 12.15 nM, q2d*15): 37.5 ng/mL
% HbA1C Mean ([1]; Day 29, 12.15 nM, q2d*15): 6.47 *** %
Insulin (ng/mL) Mean ([1]; Day 29, 12.15 nM, q2d*15): 48.1** ng/mL
Blood Glucose AUC (Day 30-37) % Change vs Control [1, 4]: −15.58%
Blood Glucose AUC (Day 30-37) (mg/dL*days) Mean [1, 4]: 3032.0 mg·days/dL
Blood Glucose AUC (Day 38-45) % Change vs Control [1, 4]: −5.16%
Blood Glucose AUC (Day 38-45) (mg/dL*days) Mean [1, 4]: 3415.7 mg·days/dL
% HbA1C Mean [1, 5]: 7.8%
Delta HbA1C vs. DC [1, 5]: −0.7
Insulin (ng/mL) Mean [1, 5]: 19.7 ng/mL
Body Weight % Change vs Day 45 Mean ([1]; recovery study, earlier dose 12.155 nM): 9.5%
% Glucose Reduction (Blood Glucose AUC0-120 min) (SD rats; OGTT, 1 mg/Kg dose, after 24 hrs): 49.3%
Blood Glucose AUC (mg/dL*min) Mean (SD rats; OGTT, 22 hr, Exp. 1): 5458.0 mg·min/dL
Blood Glucose AUC (mg/dL*min) Mean (SD rats; OGTT, 22 hr, Exp. 2): 4258 mg·min/dL
Blood Glucose AUC (mg/dL*min) Mean (SD rats; OGTT, 168 hr, Exp. 1): 12785.0 mg·min/dL
Blood Glucose AUC (mg/dL*min) Mean (SD rats; OGTT, 168 hr, Exp. 2): 7410 mg·min/dL
Blood Glucose AUC (mg/dL*min) Mean (SD rats; OGTT, 336 hr, Exp. 1): 16223.0 mg·min/dL
Blood Glucose AUC (mg/dL*min) Mean (SD rats; OGTT, 336 hr, Exp. 2): 8023.0 mg·min/dL
reduction in blood glucose AUC (SD rats; after 168 hrs of injection, 1 mg/kg): about 25%
cumulative food intake vs diabetic control group ([2]; 0 to 27th day (FIG. 8)): statistically significant reduction in food intake
% HbA1c Mean ([2]; Day 0 (before treatment)): 5.05%
% HbA1c % Change vs DC ([2]; Day 27, vs Diabetic Control): −2.26%
% HbA1c Mean ([2]; Day 27, s.c. 0.3 mg/kg qd*3, 0.1 mg/kg q2d*7, 0.1 mg/kg q4d*2): 5.03*** %
% change in body weight ([2]; day 0 to day 27 (FIG. 9)): −8%
Body Weight Change (%) Mean ([3]; 48 h, Exp. 1): −6.5%
Food Consumption (g) Mean ([3]; 48 h, Exp. 1): 17.5 g
Body Weight Change (%) Mean ([3]; 48 h, Exp. 2): −8.7%
Food Consumption (g) Mean ([3]; 48 h, Exp. 2): 19.3 g
Body Weight Change (%) Mean ([3]; 154 h, Exp. 1): 4.5%
Food Consumption (g) Mean ([3]; 154 h, Exp. 1): 86.3 g
Body Weight Change (%) Mean ([3]; 154 h, Exp. 2): 0.2%
Food Consumption (g) Mean ([3]; 154 h, Exp. 2): 50.4 g
Body Weight Change (%) Mean ([3]; 324 h, Exp. 1): 11.8%
Food Consumption (g) Mean ([3]; 324 h, Exp. 1): 107.9 g
Body Weight Change (%) Mean ([3]; 324 h, Exp. 2): 3.8%
Food Consumption (g) Mean ([3]; 324 h, Exp. 2): 96.8 g
Body Weight (Day 2) % Change vs Baseline [3, 6]: −7.65%
Body Weight (g) (Day 2) Mean [3, 6]: 428.1 g
Body Weight (Day 4) % Change vs Baseline [3, 7]: −5.3%
Body Weight (g) (Day 4) Mean [3, 7]: 427.2 g
Food Consumption (g) (day 0 to day 2) Mean ([3]; rats, 1 mg/kg s.c. single injection, day 0 to day 2): 5.03*** g
Food Consumption (g) (day 0 to day 4) Mean ([3]; rats, 1 mg/kg s.c. single injection, day 0 to day 4): 55.73*** g
